From paper doi:10.1101/2025.10.10.681657 (bioRxiv, 2025)
Each block holds one molecule with its values, some of them ahead of it.

Assays:
[1] = molecular target: U4/U6 snRNA construct (92 nt); assay: SPR binding to U4/U6 snRNA construct (92 nt); parameters: species or system yeast; conditions: 92 nt RNA, steady-state fit; >100 = signal appeared at 100 μM but failed to fit
Description: SPR experiments were carried out using an SPR optical biosensor (BIAcore 3000, Cytiva, USA) based on reported methods with minor modifications.[35] To avoid RNA degradation during long-time injections, the whole microfluidic system was washed by priming 50% RNase Zap buffer and RNase-free water one day before the experiments. Then, by using running buffer (1xPBS, pH7.4, 0.005% Tween 20, 5% DMSO) at a flow rate of 5 μL/min, the binding assays were performed. In brief, a CM5 chip surface coated with carboxylated dextran was activated by standard EDC/NHS amine-coupling protocol and then conjugated with streptavidin (200 ng/mL in 10 mM sodium acetate buffer, pH 4.5) for 30 min, resulting in 4000~6000 response units (RUs) signal. After streptavidin conjugation, the surface was deactivated (1 M ethanolamine, pH 8.5) for 10 min and regenerated (10 mM NaOH) for 2 min to remove unbound SA. Then, the folded U4/U6 RNA with biotin-label at 5′ end was prepared (according to the above-mentioned method) at 5 μM and injected in flow-cell (Fc) 2 for 30 min while Fc1 was kept blank as a reference. Then, the system continued flowing the running buffer until the baseline was stable before future steps.
To detect binding between small molecules and U4/U6 snRNA, a 50 μL compound solution was applied to both Fc1 and Fc2 channels simultaneously at a higher flow rate (25 μL/min). The binding curve contains 120 s association and 200 s dissociation. A pulse of 10 mM NaOH injection was used for regeneration if needed. To measure the dissociation constant (KD), titrations of compound solutions with a serial dilution were applied. The KD value was then calculated by fitting the binding curves based on a steady-state model in BIAevaluation 4.0 software and plotted in GraphPad Prism 9.

[2] = tested on: U4/U6 snRNA construct 32 nt (No. 4), Cy5 (RNA, hairpin) CGCAUAUCAGUGAGGAUUCGUCCGAGAUUGUG; assay: small molecule microarray; conditions: 1x PBS; pH 7.4, 0.005% Tween 20; 50 nM RNA; immobilised compound; Z-score cutoff 3
[3] = tested on: 79 nt RNA (lacking the K-turn); assay: SMM screening, 79 nt RNA; assay type: binding, yeast; conditions: Z-score cutoff 3
Description: (§1) For high-throughput screening using SMM, the microarray slides were prepared based on previously reported methods using a robotic microarray printer (Arrayjet, UK).[34] Each slide contained ~7,000 compounds with duplicate spots of each sample. To perform screening, the SMM slide surface was first blocked with 500 nM yeast total tRNA (Invitrogen) in screening buffer (1xPBS, pH 7.4, 0.005% Tween 20) for 2 h prior to target RNA incubation. Then, the 5′-Cy5-labeled U4/U6 RNA construct was folded as above described, followed by buffer exchange to screening buffer. After annealing, the RNA was diluted to 50 nM in screening buffer and incubated with the microarray for another 2 h. After that, the glass slide was gently washed with PBST, PBS, and ddH2O three times in each buffer solution and dried in a centrifuge at 1,700 g for 2 min. Finally, the microarray was imaged with an InnoScan 1100 AL fluorescence scanner (Innopsys, France) at 635 nm and the hits were identified based on the quantified fluorescent intensity of each spot.

[4] = tested on: U4/U6 snRNA construct 92 nt (WT, No. 1), Cy5 (RNA, junction) GGCCUUAUGCACGGGAAAUACGCAUAUCAGUGAGGAUUCGUCCGAGAUUGUGUUUUUGCUGGUGUAAAUCAGCAGUUCCCCUGCAUAAGGCU; assay: small molecule microarray; conditions: 1x PBS; pH 7.4, 0.005% Tween 20; 50 nM RNA; immobilised compound; Z-score cutoff 3
[5] = tested on: U4/U6 snRNA construct 68 nt (No. 3), Cy5 (RNA, junction) GGGAAAUACGCAUAUCAGUGAGGAUUCGUCCGAGAUUGUGUUUUUGCUGGUGUAAAUCAGCAGUUCCC; assay: small molecule microarray; conditions: 1x PBS; pH 7.4, 0.005% Tween 20; 50 nM RNA; immobilised compound; Z-score cutoff 3
[6] = tested on: U4/U6 snRNA construct 92 nt (WT, No. 1) (RNA, junction) GGCCUUAUGCACGGGAAAUACGCAUAUCAGUGAGGAUUCGUCCGAGAUUGUGUUUUUGCUGGUGUAAAUCAGCAGUUCCCCUGCAUAAGGCU; assay: SPR steady state; conditions: 1x PBS, pH 7.4, 0.005% Tween 20, 5% DMSO
[7] = tested on: K-turn-containing RNAs (92 nt, 68 nt, and 32 nt); assay: SMM screening, K-turn-containing RNAs; assay type: binding, yeast; conditions: Z-score cutoff 3
Description: as §1

[8] = tested on: U4/U6 snRNA construct 92 nt (WT, No. 1), unlabeled (RNA, junction) GGCCUUAUGCACGGGAAAUACGCAUAUCAGUGAGGAUUCGUCCGAGAUUGUGUUUUUGCUGGUGUAAAUCAGCAGUUCCCCUGCAUAAGGCU; assay: CD melting (260 nm); conditions: PBS; 5 μM RNA, 100 μM compound, 5% DMSO
[9] = tested on: U4/U6 snRNA construct 79 nt (No. 2, K-turn disrupted), Cy5 (RNA, junction) GGCCUUAUGCACGGGAAAUACGCAUAUCGUAAGAUUGUGUUUUUGCUGGUGUAAAUCAGCAGUUCCCCUGCAUAAGGCU; assay: small molecule microarray; conditions: 1x PBS; pH 7.4, 0.005% Tween 20; 50 nM RNA; immobilised compound; Z-score cutoff 3
[10] = tested on: U4U6 RNA for SHAPE-MaP (T7 transcript of Template) (RNA, junction) GGGCCUUCGGGCCAAGGCCUUAUGCACGGGAAAUACGCAUAUCAGUGAGGAUUCGUCCGAGAUUGUGUUUUUGCUGGUGUAAAUCAGCAGUUCCCCUGCAUAAGGCUUCGAUCCGGUUCGCCGGAUCCAAAUCGGGCUUCGGUCCGGUUC; assay: SHAPE-MaP (2A3); conditions: KCl (3.3x folding buffer: 1023 mM); potassium phosphate pH 7.0, EDTA; 100 μM compound
[11] = molecular target: T1, Snu13 (yeast (species ), UniProt P39990 1-126); assay: MST; no compound; 50 nM RNA; MST: 10 mM HEPES pH 7.4, 150 mM NaCl, 0.005% Tween 20, 50 nM RNA (protein buffer, mixed 1:1 with RNA); EMSA: 20 mM Tris-Cl pH 7.6, 150 mM NaCl, 0.1% Triton X-100, 2 mM DTT, room temperature, 8% native PAGE; RNA folded in 11.25 mM K-phosphate pH 7.0, 310 mM KCl, 5 mM EDTA; conditions: label: 5'-Cy5; folded single strand; three-way junction, U4 5' stem-loop with 5x2 internal loop (K-turn)
T1 sequence: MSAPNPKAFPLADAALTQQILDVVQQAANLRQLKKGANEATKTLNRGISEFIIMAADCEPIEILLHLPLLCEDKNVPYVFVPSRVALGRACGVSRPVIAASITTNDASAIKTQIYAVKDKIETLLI

Molecule: CCc1nnc(-c2nnc(NCCCN(C)C)c3ccccc23)o1 [Compound 2]
binding [2]: yes
SMM binding signal [3]: negative results
binding [4]: yes
binding [5]: yes
KD [6]: 30.5 ± 8.4 µM
SMM binding signal [7]: positive binding signals
Kd [1]: 30.5 ± 8.4 µM
ΔTm [8]: +3.3 ± 0.3 °C
binding [9]: no

Molecule: COCCNc1nnc(-c2nc(C3CC3)no2)c2ccccc12 [Compound 17]
Kd [1]: > 100 µM

Molecule: CN1CCN(CCNc2nnc(-c3nc(-c4ccc(F)cc4)no3)c3ccccc23)CC1 [Compound 25]
KD [6]: 13.9 ± 3.2 µM
Kd [1]: 13.9 ± 3.2 µM

Molecule: COCCNc1nnc(-c2nnc(C3CC3)o2)c2ccccc12 [Compound 13]
Kd [1]: > 100 µM

Molecule: Cc1ccc(-n2ncc3c(NCCCN(C)C)ncnc32)cc1Cl [Compound 1]
binding [10]: yes
binding [2]: yes
SMM binding signal [3]: negative results
binding [4]: yes
binding [5]: yes
KD [6]: 50.3 ± 1.3 µM
SMM binding signal [7]: positive binding signals
Kd [1]: 50.3 ± 1.3 µM
ΔTm [8]: -1.5 ± 0.5 °C
binding [9]: no

Molecule: c1ccc2c(-c3nc(C4CC4)no3)nnc(NCCN3CCOCC3)c2c1 [Compound 19]
KD [6]: 34.5 ± 11.3 µM
Kd [1]: 34.5 ± 11.3 µM

Molecule: CCc1nnc(-c2nnc(NCCC(C)C)c3ccccc23)o1 [Compound 11]
Kd [1]: > 100 µM

Molecule: CN(C)CCCNc1nnc(-c2nc(-c3ccc(F)cc3)no2)c2ccccc12 [Compound 23]
KD [6]: 11.9 ± 7.1 µM
Kd [1]: 11.9 ± 7.1 µM

Molecule: CCc1nnc(-c2nnc(NCCCN3CCOCC3)c3ccccc23)o1 [Compound 9]
KD [6]: 61.3 ± 38.9 µM
Kd [1]: 61.3 ± 38.9 µM

Molecule: CCc1nnc(-c2nnc(NCCN(C)C)c3ccccc23)o1 [Compound 3]
KD [6]: 29.2 ± 8.6 µM
Kd [1]: 29.2 ± 8.6 µM

Molecule: CN(C)CCNc1nnc(-c2nc(C3CC3)no2)c2ccccc12 [Compound 14]
KD [6]: 32.8 ± 11.0 µM
Kd [1]: 32.8 ± 11 µM

B1: U4/U6 snRNA 92 nt construct (structured_RNA)
RNA: GGCCUUAUGCACGGGAAAUACGCAUAUCAGUGAGGAUUCGUCCGAGAUUGUGUUUUUGCUGGUGUAAAUCAGCAGUUCCCCUGCAUAAGGCU
Kd [11]: 0.062 ± 0.004 µM

Now from value to molecule:

Kd [1]: > 100 µM
Molecule: CCc1nnc(-c2nnc(NCCOC)c3ccccc23)o1 [Compound 6]

Kd [1]: > 100 µM
Molecule: c1cncc(CNc2nnc(-c3nc(C4CC4)no3)c3ccccc23)c1 [Compound 18]

Kd [1]: > 100 µM
Molecule: CCCCNc1nnc(-c2nnc(CC)o2)c2ccccc12 [Compound 5]

KD [6]: 24.2 ± 7.0 µM
Kd [1]: 24.2 ± 7 µM
Molecule: CCN(CC)CCNc1nnc(-c2nnc(C3CC3)o2)c2ccccc12 [Compound 12]

Kd [1]: > 100 µM
Molecule: CCc1nnc(-c2nnc(NCc3cccnc3)c3ccccc23)o1 [Compound 8]

Kd [1]: > 100 µM
Molecule: CCc1nnc(-c2nnc(NCCCOC)c3ccccc23)o1 [Compound 7]

KD [6]: 23.0 ± 5.3 µM
Kd [1]: 23 ± 5.3 µM
Molecule: CN1CCN(CCCNc2nnc(-c3nc(C4CC4)no3)c3ccccc23)CC1 [Compound 21]

KD [6]: 51.4 ± 8.0 µM
Kd [1]: 51.4 ± 8 µM
Molecule: CCc1nnc(-c2nnc(NCCCN3CCN(C)CC3)c3ccccc23)o1 [Compound 10]

Kd [1]: > 100 µM
Molecule: CCCCNc1nnc(-c2nc(C3CC3)no2)c2ccccc12 [Compound 16]

KD ([6]; signal at 100 μM, not fitted): > 100 µM
Kd [1]: > 100 µM
Molecule: CCc1nnc(-c2nnc(NCCN(CC)CC)c3ccccc23)o1 [Compound 4]

KD [6]: 23.4 ± 6.0 µM
Kd [1]: 23.4 ± 6 µM
Molecule: CCN(CC)CCNc1nnc(-c2nc(C3CC3)no2)c2ccccc12 [Compound 15]

KD [6]: 42.1 ± 8.6 µM
Kd [1]: 42.1 ± 8.6 µM
Molecule: c1ccc2c(-c3nc(C4CC4)no3)nnc(NCCCN3CCOCC3)c2c1 [Compound 20]

KD ([6]; signal at 100 μM, not fitted): > 100 µM
Kd [1]: > 100 µM
Molecule: Fc1ccc(-c2noc(-c3nnc(NCc4cccnc4)c4ccccc34)n2)cc1 [Compound 24]
